We go through six compounds from article PMC11206828, “Catalytic Differences between Flavohemoglobins of Giardia intestinalis and E. coli” (Pathogens, 2024).

For test [1], the target named is T1, Giardia flavohemoglobin (gFlHb) (Giardia intestinalis, UniProt E2RTZ4).
T1 sequence (E2RTZ4 1-458): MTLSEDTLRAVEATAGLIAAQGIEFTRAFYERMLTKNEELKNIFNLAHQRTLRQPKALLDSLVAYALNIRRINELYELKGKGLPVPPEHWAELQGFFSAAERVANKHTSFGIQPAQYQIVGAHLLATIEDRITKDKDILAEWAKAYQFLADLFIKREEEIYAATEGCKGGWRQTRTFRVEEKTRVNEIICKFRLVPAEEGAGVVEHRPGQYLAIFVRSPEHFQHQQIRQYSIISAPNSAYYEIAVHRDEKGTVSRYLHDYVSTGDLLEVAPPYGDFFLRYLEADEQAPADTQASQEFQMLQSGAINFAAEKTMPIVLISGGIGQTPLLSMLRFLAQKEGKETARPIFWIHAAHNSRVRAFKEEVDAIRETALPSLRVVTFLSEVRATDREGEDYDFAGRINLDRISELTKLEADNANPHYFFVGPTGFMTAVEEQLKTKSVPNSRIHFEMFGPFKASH
Briefly: biochemical. The protocol:
To determine NOD activity, Michaelis constant, and enzyme inhibition, rate assays were performed on a World Precision Instruments free radical analyzer (WPI, Sarasota, FL, USA) equipped with an NO-sensitive electrode and a temperature probe, connected to an analog digital converter controlled by Labscribe software, version 4 (iWorx, Dover, NH, USA).
Assays were conducted on a 6 mL scale in cropped 50 mL Falcon tubes in a buffer containing 0.1 M Bis-Tris (pH 6.5) and 100 μM NADH. To minimize protein adhesion to the walls of the chamber, 0.25 mg/mL bovine serum albumin (BSA; Fisher Scientific, Ottawa, ON, Canada) was added. […] Reactions were run at 37 °C in a stirred cell block heater with a four-placed machined aluminum block that matched the taper of the Falcon tubes. With this block arrangement up to four assay solutions could be warmed to the desired temperature beforehand. Upon thermal equilibration to 37 °C, the NO donor compound PROLI-NONOate (Cayman Chemical, Ann Arbor, MI, USA) prepared in 10 mM NaOH was added; 2 moles of NO are released per mole of donor. At the peak of NO release, which occurred within several seconds, flavohemoglobin and FAD were added to a final concentration of 2 nM and 10 nM, respectively. NOD activity was measured as the initial rate of NO signal decrease over the first 15 to 30 s of the reaction. […] Rate data were fitted to the Michaelis–Menten equation by nonlinear regression using Graphpad Prism software, version 9.4.1 (Dotmatics, Boston MA, USA).
(§1) The inhibitor was included in the assay solution before the addition of PROLI-NONOate. Inhibitors were also preincubated in the enzyme stock solutions at the same concentration. […] All inhibition experiments were done using the same enzyme preparations. Each assay at a particular concentration of inhibitor was measured in triplicate or more. […] To determine inhibition constants Ki, rate data obtained at different inhibitor concentrations were fit to the equation for non-competitive inhibition nonlinear regression (Equation (1)) using Graphpad Prism software. (1) v=Vmax/(Km,NO+[NO])1+[I]/Ki

The target of test [2] is T2, E. coli flavohemoglobin (Hmp) (Escherichia coli, UniProt P24232). The test is described as follows: Nitric oxide dioxygenase (NOD) inhibition assay, Hmp. Format: biochemical. As to conditions: for Ki / TN (turnover number from the inhibition fit), Hmp: pH 6.5, 37 °C. The protocol:
as §1

The target in test [3] is T1, Giardia flavohemoglobin (gFlHb). The test is described as follows: NOD activity and Michaelis constants, gFlHb. Format: biochemical. As to conditions: pH 6.5, 37 °C.
In test [4] the target is T2, E. coli flavohemoglobin (Hmp). The arrangement: method as in PMID 10777548. As to conditions: 37 °C and pH 7; cited from earlier work.
The target of the next test is ferric gFlHb (Giardia intestinalis, UniProt E2RTZ4). The following applies: read-out: Binding constant KD, ferric gFlHb; optical titration, 0.1 M Bis-Tris pH 6.5, 3.5 μM flavohemoglobin, nitrite 0 to 750 μM.
The next test deals with ferric Hmp (Escherichia coli, UniProt P24232). The following applies: optical titration, 0.1 M Bis-Tris pH 6.5.
For test [5], the target named is T1, Giardia flavohemoglobin (gFlHb). As to conditions: cited from earlier work.
Where [6] appears, read: pH 6.5, 37 °C, 100 μM NADH, 1 μM NO.
The mark [7] stands for this setting: pH 6.5, 37 °C, 100 μM NADH, 1 μM NO, imidazole and nitrite: Ki of the inhibitor-sensitive phase of a biphasic fit, read-out: Nitric oxide dioxygenase inhibition constant Ki, gFlHb.

“Also recorded” adds a separate entry of the source. Like-named read-outs stand apart in the source and are kept apart here.

T2 sequence (P24232 whole entry): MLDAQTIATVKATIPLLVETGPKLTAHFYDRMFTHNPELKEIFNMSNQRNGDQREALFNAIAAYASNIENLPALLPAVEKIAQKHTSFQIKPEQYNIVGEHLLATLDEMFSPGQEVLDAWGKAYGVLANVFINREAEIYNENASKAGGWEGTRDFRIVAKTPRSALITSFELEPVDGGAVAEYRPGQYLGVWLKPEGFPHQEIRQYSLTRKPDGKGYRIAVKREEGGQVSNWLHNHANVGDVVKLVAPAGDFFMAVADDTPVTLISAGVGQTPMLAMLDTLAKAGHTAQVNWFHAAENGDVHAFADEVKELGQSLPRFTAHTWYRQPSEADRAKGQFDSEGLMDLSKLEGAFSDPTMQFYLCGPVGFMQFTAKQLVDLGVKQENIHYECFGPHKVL
Sequence of ferric Hmp (P24232 whole entry): as above
Procedure for ferric Hmp: (§2) Titrations of ferric gFlHb and Hmp were performed in 0.1 M Bis-Tris buffer (BioShop, Burlington, ON, Canada) pH 6.5 on a Cary 400 Bio UV-visible spectrophotometer (Agilent Technologies, Mississauga, ON, Canada).
Procedure for ferric gFlHb: as §2

By Ki is commonly meant the equilibrium dissociation constant of an inhibitor or competing ligand from its target. Turning to `Cn1ccnc1` [1-methylimidazole], the Ki in test [1] is 1200 ± 300 µM; in test [1] (Inhibition constant, gFlHb (bound), NOD inhibition, pH 6.5, 37 °C), more than 1000 µM; in test [2] (Inhibition constant, Hmp (bound), NOD inhibition), more than 1 mM; in test [2] (Nitric oxide dioxygenase inhibition constant Ki, Hmp, 100 μM NADH, 1 μM NO, imidazole: Ki of the inhibitor-sensitive phase of a biphasic fit), 1.4 ± 0.25 mM. The “TN (turnover number from the inhibition fit), gFlHb” value in test [1] (setting [6]) worked out at 25 ± 1 s⁻¹. The “TN (turnover number from the inhibition fit), Hmp” value in test [2] (100 μM NADH, 1 μM NO) amounted to 38 ± 2 s⁻¹.

For the compound `c1c[nH]cn1` [Imidazole, imidazole], the “TN (turnover number from the inhibition fit), gFlHb” value in test [1] (setting [6]) amounted to 22 ± 1 s⁻¹. In addition, the Ki in test [1] (setting [7]) came to 20 ± 6 µM; in test [2] (read-out: Nitric oxide dioxygenase inhibition constant Ki, Hmp, 100 μM NADH, 1 μM NO, imidazole: Ki of the inhibitor-sensitive phase of a biphasic fit) it was 0.069 ± 0.01 mM. Besides, the “TN (turnover number from the inhibition fit), Hmp” value in test [2] (100 μM NADH, 1 μM NO) came to 33 ± 1 s⁻¹.

Consider `NC(=O)C1=CN([C@@H]2O[C@H](COP(=O)(O)OP(=O)(O)OC[C@H]3O[C@@H](n4cnc5c(N)ncnc54)[C@H](O)[C@@H]3O)[C@@H](O)[C@H]2O)C=CC1` [NADH, nicotinamide adenine dinucleotide], for which the “Michaelis constant KmNADH, gFlHb” value in test [3] (NO held at 2 μM, NADH up to 200 μM) stood at 22 ± 4 µM. Further, the “Michaelis constants of Hmp (KmNO, KmNADH, KmO2)” value (shortened to “Michaelis constants of Hmp”) in test [4] was 4.8 µM.

A word on the Kd: it is a measure of binding affinity in units of concentration. As to `O=NO` [Nitrite, nitrite], the “TN (turnover number from the inhibition fit), gFlHb” value in test [1] (setting [6]) was 23 ± 1 s⁻¹. In addition, the Ki in test [1] (setting [7]) worked out at 32 ± 12 µM. The “Effect on NOD activity of Hmp” value in test [2] (concentrations up to 2 mM) is on record as “not significantly affected; also recorded: no significant effect”. Besides, the Kd at ferric gFlHb turned out to be 180 ± 20 µM. In addition, at ferric Hmp, the “Optical differences of Hmp in the presence of nitrite (KD)” value was “too small to permit any such calculation”.

On to `O=O` [oxygen], for which the “Michaelis constants of Hmp” value in test [4] is “approximately 100 μM”. The “Michaelis constant of gFlHb for oxygen” value in test [5] is 22 ± 7 µM.

Turning to nitric oxide [NO], in test [3] (NADH held at 100 μM, NO up to 3 μM), the “Michaelis constant KmNO, gFlHb” value was 0.65 ± 0.09 µM. The “Michaelis constants of Hmp” value in test [4] was 0.28 µM.
